The values below are quoted from earlier work in US12037623B2, “Enzymatic synthesis of 4′-ethynyl nucleoside analogs” (priority 2018, dated 2024).

The subject of one data set is HIV infection. As to conditions: humanized mouse models and SIV infected rhesus macaque model.
For data set [1] the following is noted: oral; mouse and rhesus monkey.
In the next data set the test system is SIV. As to conditions: PBMC from rhesus macaque, 24 hr after drug administration.
For data set [2] the following is noted: pbmc.

Regarding `C#C[C@]1(CO)O[C@@H](n2cnc3c(N)nc(F)nc32)C[C@@H]1O` [EFdA, 4′-ethynyl-2-fluoro-2′-deoxyadenosine], in the data set with HIV (clinical isolates across all subtypes that have been evaluated), the “antiviral activity against clinical isolates” value is on record as “comparable antiviral activity”. Moreover, the antiretroviral activity result in the data set with HIV (in-vitro HIV replication assays) is on record as “potent antiretroviral”. Also, the “efficacy in animal models of HIV infection” value in the data set on HIV infection is recorded as “efficacy”. In data set [1], the absorption result was “rapid absorption” and the plasma concentrations entry is listed as “high plasma concentrations”. In addition, the “susceptibility of isolated PBMC to SIV infection” value in the data set on SIV is “refractory to SIV infection”.

As to `C#C[C@]1(COP(=O)(O)OP(=O)(O)OP(=O)(O)O)O[C@@H](n2cnc3c(N)nc(F)nc32)C[C@@H]1O` [EFdA-TP, EFdA Triphosphate], the intracellular half-life entry in data set [2] is “exceeds 72 hrs”.
